Laboratory results published in patent publication US20160045482A1, “UREIDO-PYRAZOLE DERIVATIVES” (Respivert Limited, priority 2010, published 2016).
pIC50: −log10 of the molar value.

Key:
HRV16 [1] = experiment: Assessment of HRV16 induced CPE in MRC5; format: cell-based, human rhinovirus 16; conditions: MRC5 cells; for pIC50: Rhinovirus A, 96 h, HRV16 MOI of 1, 4 days, read-out: HRV16-induced CPE IC50 Value
Method: The supernatants were aspirated and fresh media was added and the preparations were then incubated for 4 days. Where appropriate, cells were pre-incubated with the test compound or DMSO for 2 hr, and the compounds and DMSO added again after washout of the virus. Supernatants were aspirated and incubated with methylene blue solution (2% formaldehyde, 10% methanol and 0.175% Methylene Blue) for 2 hr at RT. After washing, 1% SDS was added to each well, and plates were shaken lightly for 1-2 hr prior to reading the absorbance at 660 nm. The percentage inhibition for each well was calculated. The IC50 value was calculated from the concentration-response curve generated from the serial dilutions of the test compound.

ICAM-1 = experiment: ICAM1 expression activated by human rhinovirus in BEAS2B cells (cell-based ELISA); conditions: for pIC50: Homo sapiens, BEAS-2B, HRV16 inoculation (2 hr infection), read-out: HRV16-induced ICAM1 IC50 Value
Method: BEAS2B cells were infected with rhinovirus at an MOI of 5 and incubated for 2 hr at 33° C. with gentle shaking to enhance adsorption. Test compounds were added 2 hr before HRV infection and 2 hr after infection when residual extracellular HRV was washed out. The cells were then washed with PBS, fresh media was added and the cells were incubated for a further 72 hr. The supernatant was collected for assay of IL-8 concentrations using the Duoset ELISA development kit (R&D Systems, Minneapolis, Minn.). […] After appropriate incubation, cells were fixed with 4% formaldehyde in PBS. After quenching endogenous peroxidase by adding 0.1% sodium azide and 1% hydrogen peroxide, wells were washed with buffer (0.05% Tween in PBS: PBS-Tween). After incubation with the blocking solution (5% milk in PBS-Tween for 1 hr), cells were incubated with anti-human ICAM-1 antibody in 5% BSA PBS-Tween (1:500) overnight. Wells were then washed with PBS-Tween and incubated with the secondary antibody (HRP-conjugated anti-rabbit IgG, Dako Ltd.).

IL-8 = IL-8 release activated by human rhinovirus in BEAS2B cells; format: cell-based; conditions: Homo sapiens, BEAS-2B; BEAS2B cells, MOI of 5, 72 hr; read-out: HRV16-induced IL-8 IC50 Value
Method: BEAS2B cells were infected with rhinovirus at an MOI of 5 and incubated for 2 hr at 33° C. with gentle shaking to enhance adsorption. Test compounds were added 2 hr before HRV infection and 2 hr after infection when residual extracellular HRV was washed out. The cells were then washed with PBS, fresh media was added and the cells were incubated for a further 72 hr. The supernatant was collected for assay of IL-8 concentrations using the Duoset ELISA development kit (R&D Systems, Minneapolis, Minn.).

NFκB = experiment: HRV-16 induced activation of NFκB in BEAS2B cells; format: cell-based, human; conditions: after 2 hr, at 10 MOI
Method: (§1) The cells were then collected by scraping on ice and nuclear extracts were prepared using a nuclear protein extraction kit (ActiveMotif, […], Belgium). NFκB activity and IRF3 activity were then measured using the TransAMTM NFκB (p65) ELISA kit or the TransAMTM IRF3 ELISA kit.

HRV16 [2] = experiment: HRV-16 infection, assessment of virus load (TCID50) in MRC5 cells; format: cell-based, human rhinovirus 16; conditions: HRV16 0.1 MOI, 3 days
Method: Human rhinovirus RV16 (HRV16) was obtained from the American Type Culture Collection (Manassas, Va.). Viral stocks were generated by infecting Hela cells with HRV until 80% of the cells were cytopathic. MRC5 cells (human lung fibroblast, ATCC) were infected at 0.1 MOI (multiplicity of infection of 0.1) of HRV16 and incubated for 1 hr at 33° C. with gentle shaking to stimulate adsorption. The cells were then washed with PBS, fresh media (DMEM-5% FCS) was added and the cells were incubated for a further 72 hr. Supernatant (20 μL) was collected and 10-fold serial dilutions were prepared with DMEM containing 1% FCS. All titrations were performed by infecting confluent Hela cell monolayers with serially diluted supernatant (10^−1-10^−5) and then the cytopathic effect at each dilution 3 days after infection assessed by visual inspection. The cells were then stained with Crystal Violet for confirmation. The amount of virus required to infect 50% of Hela cells was calculated in each treatment as TCID50 (50% tissue culture infectious dose, U(unit)/20 μL). Compounds were added 2 hr before HRV16 infection and 1 hr after infection when non-infected HRV was washed out.

HRV16 mRNA = experiment: Transcripts of HRV16 by PCR in MRC5 cellular extract; format: cell-based, human rhinovirus 16; conditions: MRC5 cells, HRV16 0.1 MOI, 3 days
Method: The MRC5 cells infected with virus (as described above) were used for viral RNA or mRNA detection. Total RNA extraction and reverse transcription were performed using TaqMan®Fast Cells-to-CT™ Kit (Ambion Inc. Austin Tex.). The gene transcript level of HRV16 (PrimerDesign Ltd, Southampton, UK), IFN (Applied Biosystems, Warrington, UK) and GAPDH, as a house-keeping gene (PrimerDesign Ltd, Southampton, UK) were quantified by real-time PCR using commercially available primers on a StepOnePlus™ RT-PCR system (Applied Biosystems, Warrington, UK). Variations in cDNA concentrations between different samples were corrected using the housekeeping gene, whereby the GAPDH concentration in each cDNA sample was calculated, and the cDNA diluted to contain equal amounts of GAPDH. Standard curves for GAPDH were generated by performing a dilution series of the untreated control cDNA. The relative amount of gene transcript present after different treatments was calculated and normalized by dividing the calculated value for the gene of interest by that of the house-keeping gene value.

IRF-3 = experiment: HRV-16 induced activation of IRF-3 in BEAS2B cells; format: cell-based, human; conditions: after 2 hr, at 10 MOI
Method: as §1

HRV16 [3] = experiment: HRV-16 infection, assessment of virus load (TCID50) in MRC5 cells; format: cell-based, human rhinovirus 16; conditions: pilot studies
rhinovirus = conditions: Jefferson and Tyrrell 2007; cited from earlier work
[4] = listed as Fluticasone propionate

pIC50 (IL-8)	Structure (SMILES)	HRV16-induced CPE (in words) (HRV16 [1])	pIC50 (HRV16 [1])	other results
10.39	Cc1ccc(-n2nc(C(C)(C)C)cc2NC(=O)Nc2ccc(Oc3ccnc(NC(=O)N4CCN(C)CC4)c3)c3ccccc23)cc1 [Example 44, N-(4-((4-(3-(3-(tert-Butyl)-1-(p-tolyl)-1H-pyrazol-5-yl)ureido)naphthalen-1-yl)oxy)pyridin-2-yl)-4-methylpiperazine-1-carboxamide]	inhibited HRV16-induced CPE in MRC5 cells in a concentration-dependent manner	7.79	pIC50 (ICAM-1): 10.16
	COc1cc(Nc2ncc(F)c(Nc3ccc4c(n3)NC(=O)C(C)(C)O4)n2)cc(OC)c1OC [Example R-406]			NFκB activation (HRV-16 induced) (NFκB): inhibited
10.72	Cc1ccc(-n2nc(C(C)(C)C)cc2NC(=O)Nc2ccc(Oc3ccnc(NC(N)=O)c3)c3ccccc23)cc1 [Example 30, 4-(4-(3-(3-tert-Butyl-1-p-tolyl-1H-pyrazol-5-yl)ureido)naphthalen-1-yloxy)pyridin-2-ylurea]	inhibited HRV16-induced CPE in MRC5 cells in a concentration-dependent manner	8.54	
	Cc1ccc(-n2nc(C(C)(C)C)cc2NC(=O)Nc2ccc(Oc3ccnc(NC(=O)N4CCCC4)c3)c3ccccc23)cc1 [Example 14, N-(4-(4-(3-(3-tert-Butyl-1-p-tolyl-1H-pyrazol-5-yl)ureido)naphthalen-1-yloxy)pyridin-2-yl)pyrrolidine-1-carboxamide]	inhibited HRV16-induced CPE in MRC5 cells in a concentration-dependent manner	8.48	
10.39	Cc1ccc(-n2nc(C(C)(C)C)cc2NC(=O)Nc2ccc(Oc3ccnc(NC(=O)N(C)C)c3)c3ccccc23)cc1 [Example 45, 3-(4-((4-(3-(3-(tert-Butyl)-1-(p-tolyl)-1H-pyrazol-5-yl)ureido)naphthalen-1-yl)oxy)pyridin-2-yl)-1,1-dimethylurea]	inhibited HRV16-induced CPE in MRC5 cells in a concentration-dependent manner	8.03	pIC50 (ICAM-1): 10.01
	Cc1ccc(-n2nc(C(C)(C)C)cc2NC(=O)Nc2ccc(Oc3ccnc(NC(=O)N4CC[C@@H](N(C)C)C4)c3)c3ccccc23)cc1 [Example 55, (R)-N-(4-(4-(3-(3-tert-Butyl-1-p-tolyl-1H-pyrazol-5-yl)ureido)naphthalen-1-yloxy)pyridin-2-yl)-3-(dimethylamino)pyrrolidine-1-carboxamide]	inhibited HRV16-induced CPE in MRC5 cells in a concentration-dependent manner	7.84	
	CCC(=O)O[C@]1(C(=O)SCF)[C@H](C)C[C@H]2[C@@H]3C[C@H](F)C4=CC(=O)C=C[C@]4(C)[C@@]3(F)[C@@H](O)C[C@@]21C [fluticasone propionate]			HRV-16 virus load (extracellular) (HRV16 [2]): without effect; HRV-16 virus load (extracellular) (HRV16 [2]; [4]): No effect; HRV16 mRNA detected in cellular extracts (HRV16 mRNA): without effect; ICAM-1 expression induced by HRV16 inoculation (in words) (ICAM-1; 2 hr infection): much more modest; Concentrations at which concentration-dependent effects on ICAM-1 are apparent, relative to Reference Compound 2 (ICAM-1; results not shown): 10,000 fold; NFκB activation (HRV-16 induced) (NFκB): no clear effect; NFκB activation (HRV-16 induced) (NFκB; [4]): No effect; IRF-3 activation (HRV-16 induced) (IRF-3): tendency to inhibit
	Cc1ccc(-n2nc(C(C)(C)C)cc2NC(=O)Nc2ccc(OCCN3CCOCC3)c3ccccc23)cc1 [BIRB-796]			HRV-16 virus load (extracellular) (HRV16 [2]): No effect; IRF-3 activation (HRV-16 induced) (IRF-3): tendency to inhibit
10.16	Cc1ccc(-n2nc(C(C)(C)C)cc2NC(=O)Nc2ccc(Oc3ccnc(NC(=O)N4CCOCC4)c3)c3ccccc23)cc1 [Example 43, N-(4-(4-(3-(3-tert-Butyl-1-p-tolyl-1H-pyrazol-5-yl)ureido)naphthalen-1-yloxy)pyridin-2-yl)morpholine-4-carboxamide]	inhibited HRV16-induced CPE in MRC5 cells in a concentration-dependent manner	8.02	
	Cc1cc(CCCOc2c(C)cc(-c3noc(C(F)(F)F)n3)cc2C)on1 [pleconaril]			HRV-16 virus load (extracellular) (HRV16 [2]): clearly inhibits; HRV16 mRNA detected in cellular extracts (HRV16 mRNA): clearly inhibits; Effect of treatment time versus the point of inoculation with HRV16 (HRV16 [3]): essentially only effective if the drug was administered prior to infection; Activity against rhinovirus infections in clinical development (rhinovirus): active against rhinovirus infections
9.92	CNC(=O)Nc1cc(Oc2ccc(NC(=O)Nc3cc(C(C)(C)C)nn3-c3ccc(C)cc3)c3ccccc23)ccn1 [Example 37]	inhibited HRV16-induced CPE in MRC5 cells in a concentration-dependent manner	7.62	pIC50 (ICAM-1): 10.54
